Results reported in US10144706B2 (BRISTOL-MYERS SQUIBB COMPANY, priority 2016, dated 2018).
Where a name gives a salt, the structure may show the parent alone. Read-outs that look alike come from different tables or passages of the source.

Target: T1, PD-1/PD-L1 interaction (PD-1-Ig / PD-L1-His) (Homo sapiens, UniProt Q9NZQ7)
T1 construct: hPDL1(18-239)-TVMV-His; TVMV protease site linker (C); made in house; host or cells: HEK293T
Experiment: PD-1/PD-L1 Homogenous Time-Resolved Fluorescence (HTRF) binding assay
Conditions: PD-L1-His 10 nM, PD-1-Ig 20 nM, read-out: Range or IC50
In short: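 Human PD-L1-His (10 nM final) was pre-incubated with inhibitor for 15 min, then PD-1-Ig (20 nM final) was added for a further 15 min in dPBS with 0.1% BSA and 0.05% Tween-20. Binding was detected by HTRF using Eu-cryptate anti-Ig (1 nM) and APC anti-His (20 nM).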

T1 sequence (Q9NZQ7 with tags, fused parts or gaps): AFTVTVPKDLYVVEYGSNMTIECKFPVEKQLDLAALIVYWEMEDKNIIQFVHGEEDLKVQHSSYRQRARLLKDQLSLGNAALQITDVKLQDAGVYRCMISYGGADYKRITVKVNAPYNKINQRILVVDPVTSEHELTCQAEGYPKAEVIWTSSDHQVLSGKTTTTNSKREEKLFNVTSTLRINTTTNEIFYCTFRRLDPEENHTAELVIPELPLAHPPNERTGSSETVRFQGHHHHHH

Structure (SMILES)	IC50 (numeric IC50) [nM]	IC50 (IC50 range class) [nM]
Cc1cc(OCCCN2CC[C@@H](O)C2)ccc1-c1cccc(OCCCCN2CC[C@@H](O)C2)c1C [Example 3004, (R)-1-(3-((3′-(4-((R)-3-hydroxypyrrolidin-1-yl)butoxy)-2,2′-dimethyl-[1,1′-biphenyl]-4-yl)oxy)propyl) pyrrolidin-3-ol]	–	1000 to 10000
Cc1cc(OCc2cccc(-c3cccc(COc4cc(OCc5cncc(C#N)c5)c(CNCCC(=O)O)cc4Cl)c3C)c2C)c(Cl)cc1CNCCC(=O)O [Example 5504, 3-((4-((3′-((4-(((2-carboxyethyl)amino)methyl)-2-chloro-5-((5-cyanopyridin-3-yl)methoxy)phenoxy)methyl)-2,2′-dimethyl-[1,1′-biphenyl]-3-yl)methoxy)-5-chloro-2-methylbenzyl)amino)propanoic acid]	–	0.04 to 20
COc1cc(OCc2cccc(-c3cccc(COc4cc(OC)c(CNC(CO)CO)cc4Cl)c3C)c2C)c(Cl)cc1CNC(CO)CO [Example 2122, 2,2′-((((((2,2′-dimethyl-[1,1′-biphenyl]-3,3′-diyl)bis(methylene))bis(oxy))bis(5-chloro-2-methoxy-4,1-phenylene))bis(methylene))bis(azanediyl))bis(propane-1,3-diol)]	–	0.04 to 20
C[C@](CO)(NCc1cc(Cl)c(OCc2cccc(-c3cccc(COc4cc(OCc5cncc(C#N)c5)c(CO)cc4Cl)c3Cl)c2Cl)cc1OCc1cncc(C#N)c1)C(=O)O [Example 50400]	–	0.04 to 20
Cc1c(COc2cc(OCc3cncc(C#N)c3)c(CNC(CCO)C(=O)O)cc2Cl)cccc1-c1cccc(COc2cc(OCc3cncc(C#N)c3)c(CNC(CCO)C(=O)O)cc2Cl)c1C (stereo not drawn) [Example 40270]	–	0.04 to 20
Cc1c(COc2cc(OCc3cncc(C#N)c3)c(CN(CC(C)C)C(CCO)C(=O)O)cc2Cl)cccc1-c1cccc(COc2cc(OCc3cncc(C#N)c3)c(CN(CC(C)C)C(CCO)C(=O)O)cc2Cl)c1C (stereo not drawn) [Example 40850]	–	0.04 to 20
COC[C@H](NCc1cc(Cl)c(OCc2cccc(-c3cccc(COc4cc(OCc5cncc(C#N)c5)c(CN[C@@H](COC)C(=O)O)cc4Cl)c3C)c2C)cc1OCc1cncc(C#N)c1)C(=O)O [Example 40340]	–	0.04 to 20
COc1cc(OCc2cccc(-c3cccc(COc4cc(OC)c(CNCCC(=O)O)cc4Cl)c3C)c2C)c(Cl)cc1CNCCC(=O)O [Example 5035, 3,3′-((((((2,2′-dimethyl-[1,1′-biphenyl]-3,3′-diyl)bis(methylene))bis(oxy))bis(5-chloro-2-methoxy-4,1-phenylene))bis(methylene))bis(azanediyl))dipropionic acid]	–	0.04 to 20
Cc1c(COc2cc(O)c(CN[C@@](C)(CO)C(=O)O)cc2Cl)cccc1-c1cccc(COc2cc(OCc3cncc(C#N)c3)c(CN[C@@](C)(CO)C(=O)O)cc2Cl)c1C [Example 40130]	–	0.04 to 20
Cc1c(COc2cc(OCc3ccc(-n4cccn4)nc3)c(CN(C)C(C)(C)C(=O)O)cc2Cl)cccc1-c1cccc(COc2cc(OCc3ccc(-n4cccn4)nc3)c(CN(C)C(C)(C)C(=O)O)cc2Cl)c1C [Example 5024, 2,2′-((((((2,2′-dimethyl-[1,1′-biphenyl]-3,3′-diyl)bis(methylene))bis(oxy))bis(2-((6-(1H-pyrazol-1-yl)pyridin-3-yl)methoxy)-5-chloro-4,1-phenylene))bis(methylene))bis(methylazanediyl))bis(2-methylpropanoic acid)]	–	0.04 to 20
Cc1c(COc2cc(OCc3cncc(C#N)c3)c(CNC(C(=O)O)C(C)C)cc2Cl)cccc1-c1cccc(COc2cc(OCc3cncc(C#N)c3)c(CNC(C(=O)O)C(C)C)cc2Cl)c1C (stereo not drawn) [Example 40440]	–	0.04 to 20

More lines, now with the values ahead:

IC50 (numeric IC50) [nM]	IC50 (IC50 range class) [nM]	Structure (SMILES)
12	–	Cc1c(OCCCN2CC[C@@H](O)C2)cccc1-c1cccc(OCCCN2CC[C@@H](O)C2)c1Cl [Example 3024, (3R,3′R)-1,1′-(((2-chloro-2′-methyl-[1,1′-biphenyl]-3,3′-diyl)bis(oxy))bis(propane-3,1-diyl))bis(pyrrolidin-3-ol)]
–	1000 to 10000	Cc1c(OCCCN2CC[C@@H](O)C2)cccc1-c1cccc(OCCCN2CC(O)C[C@H]2C(=O)O)c1C (stereo in doubt) [Example 2051, (2S,4R)-4-hydroxy-1-(3-((3′-(3-((R)-3-hydroxypyrrolidin-1-yl)propoxy)-2,2′-dimethyl-[1,1′-biphenyl]-3-yl)oxy)propyl)pyrrolidine-2-carboxylic acid]
–	0.04 to 20	Cc1c(OCCCN2CC[C@@H](O)C2)cccc1-c1cccc(OCCCN2CC[C@@H](O)C2)c1C [Example 3001, (3R,3′R)-1,1′-(((2,2′-dimethyl-[1,1′-biphenyl]-3,3′-diyl)bis(oxy))bis(propane-3,1-diyl))bis(pyrrolidin-3-ol)]
–	0.04 to 20	Cc1cc(OCc2cccc(-c3cccc(COc4cc(C)c(CNC(CO)CO)cc4C)c3C)c2C)c(C)cc1CNC(CO)CO [Example 5004, 2,2′-((((((2,2′-dimethyl-[1,1′-biphenyl]-3,3′-diyl)bis(methylene))bis(oxy))bis(2,5-dimethyl-4,1-phenylene))bis(methylene))bis(azanediyl))bis(propane-1,3-diol)]
–	20.1 to 90	Cc1c(OCCCN(C)CCC(N)=O)cccc1-c1cccc(OCCCN2CC[C@@H](O)C2)c1C [Example 2054, (R)-3-((3-((3′-(3-(3-hydroxypyrrolidin-1-yl)propoxy)-2,2′-dimethyl-[1,1′-biphenyl]-3-yl)oxy)propyl)(methyl)amino)propanamide]
–	0.04 to 20	Cc1c(OCCCNC[C@H](O)CO)cccc1-c1cccc(OCCCN(CCc2cccnc2)C[C@H](O)CO)c1C [Example 2103, (S)-3-((3-((3′-(3-(((S)-2,3-dihydroxypropyl)(2-(pyridin-3-yl)ethyl)amino)propoxy)-2,2′-dimethyl-[1,1′-biphenyl]-3-yl)oxy)propyl)amino)propane-1,2-diol]
–	1000 to 10000	Cc1c(OCCCN2CC[C@@H](O)C2)cccc1-c1cccc(S(=O)(=O)NCCC(=O)O)c1C [Example 3020, (R)-3-(3′-(3-(3-hydroxypyrrolidin-1-yl)propoxy)-2,2′-dimethyl-[1,1′-biphenyl]-3-ylsulfonamido)propanoic acid]
–	90.1 to 1000	Cc1c(OCCCN[C@@H](Cc2ccccn2)C(=O)O)cccc1-c1cccc(OCCCN2CC[C@@H](O)C2)c1C [Example 2116, (S)-2-((3-((3′-(3-((R)-3-hydroxypyrrolidin-1-yl)propoxy)-2,2′-dimethyl-[1,1′-biphenyl]-3-yl)oxy)propyl)amino)-3-(pyridin-2-yl)propanoic acid]
–	20.1 to 90	Cc1c(OCCCN2CC[C@@H](O)C2)cccc1-c1cccc(OCCCN2CCC(O)(c3ccccc3)C2)c1C (stereo partly drawn) [Example 3028, 1-(3-((3′-(3-((R)-3-hydroxypyrrolidin-1-yl)propoxy)-2,2′-dimethyl-[1,1′-biphenyl]-3-yl)oxy)propyl)-3-phenylpyrrolidin-3-ol, 2 TFA]
–	> 10000	Cc1c(OCCCN2C[C@H](O)C[C@H]2C(=O)O)cccc1-c1cccc(OCCCN2C[C@H](O)C[C@H]2C(=O)O)c1Cl [Example 1003, (2S,2′S,4R,4′R)-1,1′-(((2-chloro-2′-methyl-[1,1′-biphenyl]-3,3′-diyl)bis(oxy))bis(propane-3,1-diyl))bis(4-hydroxypyrrolidine-2-carboxylic acid)]
